Results as given in patent US4250097A, “Compositions for and a method of preventing diabetic complications” (Syntex (U.S.A.) Inc., priority 1978, dated 1981).

Experiments:
Aldose reductase = target: T1, Aldose reductase (Oryctolagus cuniculus, UniProt P15122); test: Aldose reductase inhibition, in vitro (loss of absorbance at 340 millimicrons, glyceraldehyde substrate, NADPH); assay type: biochemical, New Zealand rabbits (lens); conditions: pH 6.0, 37° C; for inhibition at 100 µM: 1 × 10^-4 molar concentration of xanthone compound; for inhibition at 10 µM: 1 × 10^-5 molar concentration of xanthone compound; for inhibition at 1 µM: 1 × 10^-6 molar concentration of xanthone compound
T1 construct: Aldose reductase is isolated by homogenizing the lens in 3 volumes of water; from tissue; host or cells: lens of mature New Zealand rabbits
Procedure: In brief, a solution of the enzyme is added to an appropriately buffered solution containing glyceraldehyde. The loss of ultra violet absorbance at 340 millimicrons is indicative of the rate of reaction of the aldehyde with the enzyme as previously reported by Hayman and Kinoshita, (J. Biol. Chem: 240, 877, (1965)).
Fifty lenses are obtained from mature, New Zealand, rabbits and are immediately frozen on dry ice. Aldose reductase is isolated by homogenizing the lens in 3 volumes of water for 30 seconds in a Waring blender followed by centrifugation at 10,000 xg for 15 minutes to remove insoluble material. Saturated ammonium sulfate is added to the supernatant fluid to 40% saturation. The suspension is centrifuged after 15 minutes, and the supernatant liquid recovered. Additional protein is removed by increasing the ammonium sulfate concentration to 50%, and centrifuging the mixture. Aldose reductase is precipitated from the 50% saturated solution by the addition of powdered ammonium sulfate to 75% saturation and is recovered by centrifugation. The precipitated enzyme is assayed by following the ultraviolet absorbance at 340 millimicrons after dissolving the enzyme in 0.05 M sodium chloride. The enzyme (0.50 ml) is added to a quartz cuvette containing phosphate buffer (0.067 M, pH 6.0), NADPH (2×10^-5 M), and water to a final volume of 3 ml and the cuvette inserted in a conventional ultra-violet spectrometer. The reaction is started by the addition of substrate (glyceraldehyde) to the contents of the cuvette and is followed by the determination of loss of absorbance at 340 millimicrons for 2 minutes at 37° C. The reaction rate observed is usually linear for at least 5 minutes.
All results are shown in Tables I, II, and III as % inhibition, i.e. based on a non-inhibited control sample, no inhibition, 0%.

lens aldose reductase = conditions: in vitro; cited from earlier work

inhibition at 100 µM (Aldose reductase) [%]	inhibition at 10 µM (Aldose reductase) [%]	inhibition at 1 µM (Aldose reductase) [%]	% Inhibition (Aldose reductase; molar concentration printed (Table II)) [%]	Compound	inhibition of lens aldose reductase (potency in words) (lens aldose reductase)
89	69	17	–	CC(C)N(C)S(=O)(=O)c1ccc2oc3ccc(C(=O)O)cc3c(=O)c2c1	–
90	65	25	–	CC(C)CCOc1cc([S+](C)[O-])cc2c(=O)c3cc(C(=O)O)ccc3oc12 (stereo not drawn)	–
95	75	25	–	CCCCN(C)S(=O)(=O)c1ccc2oc3ccc(C(=O)O)cc3c(=O)c2c1	–
97	67	17	–	CSc1cc(C(C)C)c2oc3ccc(C(=O)O)cc3c(=O)c2c1	–
85	67	17	–	CSc1cc(OC(C)C)c2oc3ccc(C(=O)O)cc3c(=O)c2c1	–
85	60	30	–	CSc1cc(OC(C)C)cc2c(=O)c3cc(C(=O)O)ccc3oc12	–
89	73	3	–	CC(C)Oc1ccc2oc3ccc(C(=O)O)cc3c(=O)c2c1	–
–	81	54	–	O=C(O)c1ccc2oc3ccc(OCC(O)CO)cc3c(=O)c2c1 (stereo not drawn)	–
–	67	–	–	O=C(O)c1ccc2oc3ccc(S(=O)(=O)N(CCO)CCO)cc3c(=O)c2c1 [(HOCH2 CH2)2 N 2 H]	–
95	70	35	–	CCCCCOc1cc([S+](C)[O-])cc2c(=O)c3cc(C(=O)O)ccc3oc12 (stereo not drawn) [CH3 1 n-C5 H11 O]	–
96	83	42	–	CCCCCCCCOc1cc([S+](C)[O-])cc2c(=O)c3cc(C(=O)O)ccc3oc12 (stereo not drawn) [CH3 1 n-C8 H11 O]	–
–	50	–	–	C[S+]([O-])c1cc(S(C)(=O)=O)cc2c(=O)c3cc(C(=O)O)ccc3oc12 (stereo not drawn) [CH3 2 CH3 SO]	–
–	54	50	63	CCC(=O)c1ccc2oc3ccc(C(=O)O)cc3c(=O)c2c1 [CH3 CH2 H]	–
–	39	25	–	COc1cc(OC)c2oc3ccc(C(=O)O)cc3c(=O)c2c1 [CH3 O CH3 O]	–
81	39	17	–	COc1ccc2oc3ccc(C(=O)O)cc3c(=O)c2c1 [CH3 O H]	–
70	43	–	–	O=C(O)c1ccc2oc3ccc(S(=O)(=O)O)cc3c(=O)c2c1 [H 3 H]	–
78	50	28	–	COc1cccc2c(=O)c3cc(C(=O)O)ccc3oc12 [H CH3 O]	–
–	83	–	–	O=C(O)c1ccc2oc3ccc(S(=O)(=O)CCO)cc3c(=O)c2c1 [HO(CH2)2 2 H, 7-(2-hydroxyethylsulfonyl)xanthone-2-carboxylic acid]	–
–	–	–	–	CC1OC(Oc2c(-c3cc(O)c(O)c(O)c3)oc3cc(O)cc(O)c3c2=O)C(O)C(O)C1O (stereo not drawn) [myrecetrin]	among the most potent
–	–	–	–	O=c1c(O)c(-c2ccc(O)c(O)c2)oc2cc(O)cc(O)c12 [quercetin]	among the most potent
–	–	–	–	CC1OC(Oc2c(-c3ccc(O)c(O)c3)oc3cc(O)cc(O)c3c2=O)C(O)C(O)C1O (stereo not drawn) [quercetrin]	among the most potent
